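Five concentrations, 48 hours, 96-well plates. At the TGI there is no net growth.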
What was measured:
Test in all cases: inhibition of tumour cell growth, NCI panel, 48 h
[1] = system: MDA-N
[2] = system: MOLT-4 leukemia
[3] = system: SK-OV-3 ovarian
[4] = system: SF-295 CNS
[5] = system: OVCAR-4 ovarian
[6] = system: RPMI-8226 leukemia
[7] = system: SF-539 CNS
[8] = system: HT29 colon
[9] = system: SN12C renal
[10] = system: HOP-62 NSCLC
[11] = system: PC-3 prostate
[12] = system: EKVX NSCLC
[13] = system: UO-31 renal
[14] = system: RXF 393 renal
[15] = system: IGROV1 ovarian
[16] = system: COLO 205 colon
[17] = system: CAKI-1 renal
[18] = system: HCT-116 colon
[19] = system: NCI-H23 lung
[20] = system: NCI/ADR-RES ovarian
[21] = system: DU-145 prostate
[22] = system: A498 renal
[23] = system: SF-268 CNS
[24] = system: KM12 colon
[25] = system: UACC-257 melanoma
[26] = system: LOX IMVI melanoma
[27] = system: UACC-62 melanoma
[28] = system: A549 NSCLC
[29] = system: ACHN renal
[30] = system: K-562 leukemia
[31] = system: U251 CNS
[32] = system: M14 melanoma
[33] = system: T-47D breast
[34] = system: SK-MEL-5 melanoma
[35] = system: HOP-92 NSCLC
[36] = system: SNB-19 CNS
[37] = system: MCF7 breast
[38] = system: OVCAR-8 ovarian
[39] = system: BT-549 breast
[40] = system: SR leukemia
[41] = system: SNB-75 CNS
[42] = system: HCC-2998 colon
[43] = system: HS 578T breast
[44] = system: SK-MEL-2 melanoma
[45] = system: OVCAR-5 ovarian
[46] = system: NCI-H522 lung
[47] = system: NCI-H460 lung
[48] = system: NCI-H226 lung
[49] = system: MDA-MB-435
[50] = system: SW-620 colon
[51] = system: SK-MEL-28 melanoma
[52] = system: 786-0 renal
[53] = system: CCRF-CEM leukemia
[54] = system: MDA-MB-231 breast
[55] = system: TK-10 renal
[56] = system: HL-60(TB) leukemia
[57] = system: HCT-15 colon
[58] = system: OVCAR-3 ovarian
[59] = system: MALME-3M melanoma
[60] = system: LXFL 529 NSCLC
[61] = system: DMS 273 small cell lung
[62] = system: M19-MEL melanoma
[63] = system: KM20L2 colon
[64] = system: HOP-18 NSCLC
[65] = system: SNB-78 CNS
[66] = system: DLD-1 colon

`COc1c(OC)c(OC)c2c(=O)cc(-c3ccc(OC(C)C)cc3)oc2c1OC` was tested, and the TGI [1] was > 53.8 µM, the TGI [2] was 23.8 µM and the TGI [3] was > 50.5 µM. For the same compound, the TGI [4] was > 53.6 µM, the TGI [5] was > 49.2 µM and the TGI [6] was 23.7 µM. The TGI [7] was 51.2 µM, the TGI [8] was > 49.4 µM and the TGI [9] was > 53.4 µM. For the same compound, the TGI [10] was 37.5 µM, the TGI [11] was > 100 µM and the TGI [12] was > 54.9 µM. For the same compound, the TGI [13] was > 47.3 µM, the TGI [14] was > 48.7 µM and the TGI [15] was > 56.8 µM. For the same compound, the TGI [16] was > 50.2 µM, the TGI [17] was 35.1 µM and the TGI [18] was 23.6 µM. For the same compound, the TGI [19] was > 56.5 µM, the TGI [20] was 61.6 µM and the TGI [21] was > 50.8 µM. For the same compound, the TGI [22] was 36.9 µM, the TGI [23] was > 51.8 µM and the TGI [24] was > 100 µM. For the same compound, the TGI [25] was > 58.9 µM, the TGI [26] was > 55.2 µM and the TGI [27] was 32 µM. For the same compound, the TGI [28] was > 51.1 µM, the TGI [29] was > 55.8 µM and the TGI [30] was > 100 µM. The TGI [31] was > 52 µM, the TGI [32] was 43.1 µM and the TGI [33] was 42.5 µM. The TGI [34] was 25.5 µM, the TGI [35] was 23.4 µM and the TGI [36] was > 53.5 µM. For the same compound, the TGI [37] was 35.8 µM, the TGI [38] was 49.5 µM and the TGI [39] was > 49.9 µM. For the same compound, the TGI [40] was > 26.2 µM, the TGI [41] was > 49.9 µM and the TGI [42] was > 53.2 µM. For the same compound, the TGI [43] was 52.5 µM, the TGI [44] was > 50.7 µM and the TGI [45] was > 51.9 µM. The TGI [46] was > 58.2 µM, the TGI [47] was > 56.6 µM and the TGI [48] was 32.3 µM. The TGI [49] was > 53.5 µM, the TGI [50] was > 58.8 µM and the TGI [51] was > 55.4 µM. The TGI [52] was > 49.3 µM, the TGI [53] was > 68.5 µM and the TGI [54] was > 54.2 µM. The TGI [55] was > 53.9 µM, the TGI [56] was 13 µM and the TGI [57] was > 54.8 µM. For the same compound, the TGI [58] was 44.6 µM and the TGI [59] was > 50.3 µM.

For `O=c1cc(-c2ccccc2)oc2c1ccc1[nH]c3ccccc3c(=O)c12`, the TGI [1] was > 100 µM, the TGI [2] was > 100 µM and the TGI [3] was > 100 µM. The TGI [4] was > 100 µM, the TGI [5] was > 100 µM and the TGI [6] was > 100 µM. For the same compound, the TGI [7] was > 100 µM, the TGI [8] was > 100 µM and the TGI [9] was > 100 µM. For the same compound, the TGI [10] was > 100 µM, the TGI [11] was > 100 µM and the TGI [12] was > 100 µM. The TGI [13] was > 100 µM, the TGI [14] was > 100 µM and the TGI [15] was > 100 µM. For the same compound, the TGI [16] was > 100 µM, the TGI [17] was > 100 µM and the TGI [18] was > 100 µM. For the same compound, the TGI [19] was > 100 µM, the TGI [20] was > 100 µM and the TGI [21] was > 100 µM. The TGI [22] was > 100 µM, the TGI [23] was > 100 µM and the TGI [24] was > 100 µM. For the same compound, the TGI [25] was > 100 µM, the TGI [26] was 34.9 µM and the TGI [27] was > 100 µM. The TGI [28] was > 100 µM, the TGI [29] was > 100 µM and the TGI [30] was > 100 µM. For the same compound, the TGI [31] was > 100 µM, the TGI [32] was > 100 µM and the TGI [33] was > 100 µM. The TGI [34] was > 100 µM, the TGI [35] was > 100 µM and the TGI [36] was > 100 µM. For the same compound, the TGI [37] was > 100 µM, the TGI [38] was > 100 µM and the TGI [39] was > 100 µM. For the same compound, the TGI [40] was > 100 µM, the TGI [41] was > 100 µM and the TGI [42] was > 100 µM. The TGI [43] was > 100 µM, the TGI [44] was > 100 µM and the TGI [45] was > 100 µM. The TGI [46] was > 100 µM, the TGI [47] was 36.9 µM and the TGI [48] was > 100 µM. The TGI [49] was > 100 µM, the TGI [50] was > 100 µM and the TGI [51] was > 100 µM. For the same compound, the TGI [52] was > 100 µM, the TGI [53] was > 100 µM and the TGI [54] was > 100 µM. The TGI [55] was > 100 µM, the TGI [56] was > 100 µM and the TGI [57] was > 100 µM. For the same compound, the TGI [58] was > 100 µM and the TGI [59] was > 100 µM.

In the case of `CCC(C)(O)c1cn(-c2ccc(Cl)cc2)nn1` (centres undefined), the TGI [60] is reported as > 100 µM, the TGI [2] is reported as > 100 µM and the TGI [3] is reported as > 100 µM. The TGI [4] was > 100 µM, the TGI [5] was > 100 µM and the TGI [6] was > 100 µM. The TGI [7] was > 100 µM, the TGI [8] was > 100 µM and the TGI [9] was > 100 µM. For the same compound, the TGI [10] was > 100 µM, the TGI [12] was > 100 µM and the TGI [13] was > 100 µM. The TGI [61] was > 100 µM, the TGI [14] was > 100 µM and the TGI [15] was > 100 µM. The TGI [16] was > 100 µM, the TGI [17] was > 100 µM and the TGI [18] was > 100 µM. For the same compound, the TGI [19] was > 100 µM, the TGI [62] was > 100 µM and the TGI [22] was > 100 µM. The TGI [23] was > 100 µM, the TGI [24] was > 100 µM and the TGI [25] was > 100 µM. For the same compound, the TGI [26] was > 100 µM, the TGI [27] was > 100 µM and the TGI [63] was > 100 µM. For the same compound, the TGI [28] was > 100 µM, the TGI [29] was > 100 µM and the TGI [30] was > 100 µM. The TGI [31] was > 100 µM, the TGI [32] was > 100 µM and the TGI [64] was > 100 µM. For the same compound, the TGI [34] was > 100 µM, the TGI [35] was > 100 µM and the TGI [36] was > 100 µM. The TGI [38] was > 100 µM, the TGI [40] was > 100 µM and the TGI [41] was > 100 µM. For the same compound, the TGI [42] was > 100 µM, the TGI [44] was > 100 µM and the TGI [65] was > 100 µM. For the same compound, the TGI [45] was > 100 µM, the TGI [46] was > 100 µM and the TGI [47] was > 100 µM. The TGI [48] was > 100 µM, the TGI [66] was > 100 µM and the TGI [50] was > 100 µM. The TGI [51] was > 100 µM, the TGI [52] was > 100 µM and the TGI [53] was > 100 µM. For the same compound, the TGI [55] was > 100 µM, the TGI [56] was > 100 µM and the TGI [57] was > 100 µM. For the same compound, the TGI [58] was > 100 µM and the TGI [59] was > 100 µM.
